Several values for one entry are separate records, joined by “and”; a condition that tells them apart may be missing. Identical values can stand only once.
Biological target: α-glucosidase enzyme from Saccharomyces cerevisiae type 1
Experiment: α-Glucosidase inhibitory assay (p-NPG substrate, absorbance at 405 nm)
Format: biochemical
Conditions: for IC50: S. cerevisiae α-glucosidase type 1, p-NPG 2 mM, pH 6.5, 37°C, 30 min, triplicate; for times more potent than acarbose: ratio of IC50 values versus acarbose; for inhibition of α-glucosidase (not screened for IC50): screening, concentration not given
Procedure: For phosphate-buffered saline (PBS), NaH₂PO₄ (1.4 g), NaCl (8 g), KCl (0.2 g), and KH₂PO4 (0.2 g) were dissolved in deionized H2O (1 L) at 20°C. Using NaOH (1M) and HCl (1M), the pH of the solution was adjusted to 6.5 at 20°C. p-Nitrophenyl-α-D-glucopyranoside (2 mM) (p-NPG-substrate) was prepared by dissolving p-NPG (6 mg) in buffer solution (10 mL). α-Glucosidase enzyme Type 1, lyophilized powder (Sigma-Aldrich) from Saccharomyces cerevisiae (a mixture of MAL12 and MAL32) was employed. The enzyme solution was prepared by dissolving 1 mg of in 1000 μL of cold PBS (pH 6.5). Subsequently, 50 μL of α-glucosidase enzyme solution was mixed with cold buffered saline (12 mL) to a concentration of 0.125 unit/mL. For sample screening, a solution of 200 μg/mL concentration was prepared in 100% DMSO, and then subjected to two-fold serial dilution in 5% DMSO in a 96-well microplate to obtain concentrations of 100, 50, 25, 12.5, 6.25, 3.13, and 1.56 μg/mL. The samples were screened using Epoch 2 Microplate Spectrophotometer from BioTek. To each well of the 96-well microplate, 10 μL of DMSO (5%) was added. The stock solution (10 μL) was added to the first well and mixed. Then, 10 μL of sample was withdrawn from the first well and added to the second well, and the process was repeated for two-fold serial dilution. Subsequently, 20 μL of α-glucosidase enzyme, 40 μL of PBS (pH 6.5), and 20 μL of deionized H2O were added to each well of the 96-well microtiter plate with constant stirring. The plate was pre-incubated at 37°C for 10 min, and then 10 μL of p-NPG (2 mM) solution was added to the mixture; its absorbance at 0 min was measured at a wavelength of 405 nm. The reaction mixture was incubated at 37°C for 30 min, and subsequently, its absorbance was measured. […] The experiment was performed in triplicate. According to a previously described methodology, the α-glucosidase inhibitory activity was determined and the inhibition (%) of this activity was calculated using the following equation: %inhibition=(A30min−A0min)control−(A30min−A0min)exp/(A30min−A0min)control×100

CSc1nc2[nH]c(=O)c3ccccc3n2n1 [Compound 1]
IC50: 155.9 ± 1.36 µM

CS(=O)(=O)c1nc2[nH]c(=O)c3ccccc3n2n1 [Compound 2]
IC50: 180 µM

O=c1[nH]c2nc(Oc3ccccc3)nn2c2ccccc12 [Compound 3]
IC50: 83.9 ± 5.12 µM

CCn1c(=O)c2ccccc2n2nc(SC)nc12 [Compound 4]
IC50: 45.6 ± 4.28 µM
times more potent than acarbose: ~3

C=CCn1c(=O)c2ccccc2n2nc(SC)nc12 [Compound 5]
IC50: 45.6 µM and 72.3 µM

CSc1nc2n(Cc3ccc([N+](=O)[O-])cc3)c(=O)c3ccc(C)cc3n2n1 [Compound 6]
% inhibition of α-glucosidase (at 0.28 μM): 16.24% inhibition at 0.28 μM
inhibition of α-glucosidase (not screened for IC50): less than 50%

CCn1c(=O)c2ccccc2n2nc(S(C)(=O)=O)nc12 [Compound 7]
% inhibition of α-glucosidase (at 0.34 μM): 19.15% inhibition at 0.34 μM
inhibition of α-glucosidase (not screened for IC50): less than 50%

C=CCn1c(=O)c2ccccc2n2nc(S(C)(=O)=O)nc12 [Compound 8]
IC50: 28.5 ± 1.22 µM
times more potent than acarbose: ~5

O=c1c2ccccc2n2nc(Oc3ccccc3)nc2n1Cc1ccc([N+](=O)[O-])cc1 [Compound 9]
% inhibition of α-glucosidase (at 0.24 μM): 16.89% inhibition at 0.24 μM

Cc1ccc2c(=O)n(Cc3ccc(C#N)cc3)c3nc(Oc4ccccc4)nn3c2c1 [Compound 10]
% inhibition of α-glucosidase (at 0.25 μM): 14.83% inhibition at 0.25 μM

Cc1ccc2c(=O)n(Cc3ccc([N+](=O)[O-])cc3)c3nc(Oc4ccccc4)nn3c2c1 [Compound 11]
% inhibition of α-glucosidase (at 0.23 μM): 19.52% inhibition at 0.23 μM

O=c1c2ccccc2n2nc(Oc3ccccc3)nc2n1CCN1CCCCC1 [Compound 12]
IC50: 97.53 ± 0.94 µM

Cc1ccc2c(=O)n(Cc3cccc(C#N)c3)c3nc(Oc4ccccc4)nn3c2c1 [Compound 13]
% inhibition of α-glucosidase (at 0.21 μM): 27.93% inhibition at 0.21 μM
inhibition of α-glucosidase (not screened for IC50): less than 50%

O=C1c2ccccc2C(=O)N1CCn1c(=O)c2ccccc2n2nc(Oc3ccccc3)nc12 [Compound 14]
IC50: 12.7 ± 1.87 µM
times more potent than acarbose: approximately 12

Source: publication PMC6693780, “Triazoloquinazolines as a new class of potent α-glucosidase inhibitors: in vitro evaluation and docking study” (PLoS ONE, 2019)
